Read-outs that look alike come from different tables or passages of the source.
What was measured:
[1] = Density of the esters and ester mixtures; assay type: physicochemical
[2] = Closed-bottle anaerobic biodegradation test, EPA Method 1647 (275 days); conditions: Duration 275 days
Method: Anaerobic biodegradation testing. […] For each substance, four samples were run. Each test was compared to separate standard samples containing ethyl oleate, squalane, 1-hexadecene, C16-18 internal olefin, or no additive. To pass the test, the sample must have more net biodegradation than the C16-18 internal olefin. The testing procedure was as follows: • 1. Each test mixture was prepared by combining with 2000 mg carbon (sample) per kg of natural sediment; 30 grams of the mixture were used for each sample run. The carbon content of the sample was measured before mixing the sample with the sediment. […] After a bottle was capped, a nitrogen sparge was employed to remove air in the headspace of the bottle before incubation was started. • 3. During the incubation period, the sample is kept at a constant temperature of 29±1° C. • 4. […] Each sample was brought to ambient temperature to make each measurement. Gas production was measured with a pressure gauge, and barometric pressure was also measured at the time of measurement to make volume corrections.

Leptocheirus plumulosus = assay type: in vivo; conditions: for Quantity: estimate
Method: Sediment toxicity testing. Sediment toxicity testing was according to U.S. Environmental Protection Agency Method 1644, the “Method for Conducting a Sediment Toxicity Test with Leptocheirus plumulosus and Non-Aqueous Drilling Fluids or Synthetic-Based Drilling Muds”. The testing procedure was as follows: • 1. Leptocheirus plumulosus amphipods were cultured and maintained in natural sediment at 23±2° C. before being exposed to a test sample. • 2. A sample contained sediment, synthetic seawater, and the substance being tested. Five samples of each substance were prepared and tested, the sample having concentrations of 100, 200, 400, 800, and 1600 mg/kg of the substance to be tested. • 3. For each sample, a 1-liter jar was prepared with approximately 150 mL of formulated sediment with 600 mL of synthetic sea water, and the substance to be tested. • 4. In each test, 20 Leptocheirus plumulosus amphipods were exposed to the sample at 20±1° C. for 10 days in the 1-L closed jar; the Leptocheirus plumulosus amphipods were not fed after the test was initiated. • 5. At the end of 10 days, the Leptocheirus plumulosus amphipods remaining alive were counted and an LC50 value was predicted based on those results.

[3] = Miscibility with a base oil (solid formation or phase separation after one week); assay type: physicochemical; conditions: 50:50 weight mixture with a base oil; for miscibility: room temperature
Method: Some of the liquid weighting agents of this invention are usable as oil-miscible weighting agents (OMWA). As used throughout this document, the term “miscible” means that emulsions and/or separate phases are not observed in a 50:50 weight mixture of one or more of the liquid weighting agents of this invention (total of 50 wt %) and an oil (50 wt %) after the mixture has been kept at 0° C. for one week. Similarly, as used throughout this document, the term “partially miscible” means that emulsions and/or separate phases are not observed in a 50:50 weight mixture of one or more of the liquid weighting agents of this invention (total of 50 wt %) and an oil (50 wt %) after the mixture has been kept at room temperature for one week.
The tribromoneopentyl esters were each combined with a base oil in a 50:50 weight mixture.
Some of the tribromoneopentyl monoesters were tested in pairs in a base oil in a 25:25:50 weight ratio, with 25 wt % of each tribromoneopentyl monoester and 50 wt % of the base oil.
The dibromoallyl esters were each combined with a base oil in a 50:50 weight mixture.
Several mixtures of a monoester containing a terminal alkene moiety were tested in a base oil in a 50:50 weight mixture.
Several mixtures of a tribromoneopentyl monoester and a monoester containing a terminal alkene moiety were tested in a base oil in a 25:25:50 weight ratio, with 25 wt % of the tribromoneopentyl monoester, 25 wt % of 2,3-dibromoprop-2-en-1-yl propanoate, and 50 wt % of the base oil.

[4] = sediment toxicity test, Pass/Fail

Question: For O=C(CBr)OCC(CBr)(CBr)COC(=O)CBr [2,2-bis(bromomethyl)1,3-propanediol-1,3-bis-(bromoacetate)], which Density [1] is on record?
Answer: 2.13 g/mL

Question: For CC(C)C(=O)OCC(CBr)(CBr)COC(=O)C(C)C [2,2-bis(bromomethyl)1,3-propanediol-1,3-di(2-methylpropanoate)], which Density [1] is on record?
Answer: 1.46 g/mL

Question: Which Amount biodegradation [2] does the source give for CCCCCC(=O)OCC(CBr)(CBr)COC(=O)CCCCC [2,2-bis(bromomethyl)1,3-propanediol-1,3-dihexanoate] here?
Answer: 7.36%

Question: And the Density [1]?
Answer: 1.28 g/mL

Question: What about the Result (Leptocheirus plumulosus; in vivo) of the same compound?
Answer: Pass

Question: With CCC(=O)OCC(CBr)(CBr)COC(=O)CC [2,2-bis(bromomethyl)1,3-propanediol-1,3-dipropionate] as the compound, how does the Density [1] read?
Answer: 1.62 g/mL

Question: For CC(C)C(=O)OCC(Br)=CBr [2,3-dibromoallyl 2-methylpropanoate], which Density [1] is on record?
Answer: 1.70 g/mL

Question: And the “solid formation or phase separation” value ([3]; kept at −18° C. for one week)?
Answer: no solid formation or phase separation was observed

Question: What about the miscibility [3] of the same compound?
Answer: miscible

Question: Which results are given for CC(=O)OCC(Br)=CBr [2,3-dibromoallyl acetate]?
Answer: Density [1]: 1.83 g/mL; solid formation or phase separation ([3]; 0° C. for one week): no solid formation or phase separation was observed

Question: Which Density [1] does the source give for CCC(=O)OCC(Br)=CBr [2,3-dibromoallyl propionate] here?
Answer: 1.79 g/mL

Question: And the “solid formation or phase separation” value ([3]; kept at −18° C. for one week)?
Answer: no solid formation or phase separation was observed

Question: And the miscibility [3]?
Answer: miscible

Question: With CC(C)C(=O)OC/C(Br)=C(\Br)COC(=O)C(C)C [(2E)-2,3-dibromobut-2-ene-1,4-diyl bis(2-methylpropanoate)] as the compound, how does the Density [1] read?
Answer: 1.49 g/mL

Question: Which Density [1] does the source give for CCC(Br)C(=O)OC/C(Br)=C(\Br)COC(=O)C(Br)CC (centres unmarked) [(2E)-2,3-dibromobut-2-ene-1,4-diyl bis(2′-bromobutyrate)] here?
Answer: 1.94 g/mL

Question: Which results are given for CCC(=O)OC/C(Br)=C(\Br)COC(=O)CC [(2E)-2,3-dibromobut-2-ene-1,4-diyl bis(propanoate)]?
Answer: Amount biodegradation [2]: 54.64%; Density [1]: 1.59 g/mL; Result (Leptocheirus plumulosus; in vivo): Pass

Question: With O=C(CBr)OC/C=C\COC(=O)CBr [(2Z)-but-2-ene-1,4-diyl bis(bromoacetate)] as the compound, how does the Density [1] read?
Answer: 1.74 g/mL

Question: For CC(C)C(=O)OCc1cc(Br)cc(Br)c1 [(3,5-dibromophenyl)methyl 2-methylpropanoate], which Density [1] is on record?
Answer: 1.62 g/mL

Question: For CC(=O)OCc1cc(Br)cc(Br)c1 [(3,5-dibromophenyl)methyl acetate], which Density [1] is on record?
Answer: 1.76 g/mL

Question: For O=C(CBr)OCc1cc(Br)cc(Br)c1 [(3,5-dibromophenyl)methyl bromoacetate], which Density [1] is on record?
Answer: 2.06 g/mL

Question: With CCCC(=O)OCc1cc(Br)cc(Br)c1 [(3,5-dibromophenyl)methyl butyrate] as the compound, how does the Amount biodegradation [2] read?
Answer: 25.1%

Question: And the Density [1]?
Answer: 1.62 g/mL

Question: Which Density [1] does the source give for CCCCC(=O)OCc1cc(Br)cc(Br)c1 [(3,5-dibromophenyl)methyl pentanoate] here?
Answer: 1.56 g/mL

Question: Which Density [1] does the source give for CCC(=O)OCc1cc(Br)cc(Br)c1 [(3,5-dibromophenyl)methyl propionate] here?
Answer: 1.68 g/mL

Question: With O=C(CBr)OCC(COC(=O)CBr)OC(=O)CBr [propane-1,2,3-triyl tris (bromoacetate)] as the compound, how does the Density [1] read?
Answer: 1.95 g/mL

Question: With CC(C)C(=O)OCC(CBr)(CBr)CBr [tribromoneopentyl 2-methylpropanoate, 3-bromo-2,2-bis(bromomethyl)propyl 2-methylpropanoate] as the compound, how does the Density [1] read?
Answer: 1.79 g/mL

Question: And the Result (Leptocheirus plumulosus; [4])?
Answer: Fail

Question: What about the Quantity (Leptocheirus plumulosus; sediment toxicity test) of the same compound?
Answer: ~243 mg/kg (estimate)

Question: Which results are given for CCCC(=O)OCC(CBr)(CBr)CBr [tribromoneopentyl butyrate, 3-bromo-2,2-bis(bromomethyl)propyl butyrate]?
Answer: Density [1]: 1.79 g/mL; solid formation or phase separation ([3]; 0° C. for one week): no solid formation or phase separation was observed

Question: With CCCCCC(=O)OCC(CBr)(CBr)CBr [tribromoneopentyl hexanoate, 3-bromo-2,2-bis(bromomethyl)propyl hexanoate] as the compound, how does the Density [1] read?
Answer: 1.57 g/mL

Question: For CC(C)CC(=O)OCC(CBr)(CBr)CBr [tribromoneopentyl isovalerate, 3-bromo-2,2-bis(bromomethyl)propyl isovalerate], which Density [1] is on record?
Answer: 1.73 g/mL

Question: Which Density [1] does the source give for CCC(=O)OCC(CBr)(CBr)CBr [tribromoneopentyl propionate, 3-bromo-2,2-bis(bromomethyl)propyl propionate] here?
Answer: 1.87 g/mL

Question: What about the “solid formation or phase separation” value ([3]; 0° C. for one week) of the same compound?
Answer: phase separation was observed

Question: What about the “solid formation or phase separation” value ([3]; kept at −18° C. for one week) of the same compound?
Answer: phase separation was observed

Question: What does the source list for CCCCC(=O)OCC(CBr)(CBr)CBr [tribromoneopentyl valerate, 3-bromo-2,2-bis(bromomethyl)propyl pentanoate]?
Answer: Density [1]: 1.72 g/mL; Result (Leptocheirus plumulosus; [4]): Pass; Quantity (Leptocheirus plumulosus; sediment toxicity test): ~363 mg/kg (estimate)

From patent publication US20260193531A1, “LIQUID WEIGHTING AGENTS FOR OIL-BASED FLUIDS” (Albemarle Corporation, priority 2022, published 2026)
